Laboratory results reported in patent US20040086904A1, “Screening assay for cotranslational translocation interfering compounds” (priority 2001, published 2004).

Assays:
VCAMSP15+4/E-Sel = assay: Chimeric fusion construct sensitivity (cell-free translation/translocation and transfected HEK293 cells); format: cell-based; settings: 15 aa of the SP plus 4 aa of the adjacent mature domain of VCAM-1
Method: (§1) The E-Selectin and ICAM-1 expression vectors pCDM8-E-selectin and pCDM8-ICAM-1 allowing transient expression in mammalian cells and cell-free translation are obtained from R&D Systems. VCAM-1 cDNA is obtained by reverse transcription of total RNA from TNF-α stimulated primary human umbilical vein endothelial cells (HUVEC) as follows. After extraction of total RNA with Trizol (GibcoBRL) according to the suppliers recommendations, reverse transcription (RT) PCR on approximately 3 μg total HUVEC RNA is performed using the Advantage High Fidelity PCR kit (CLONTECH) under standard conditions with N- and C-terminal VCAM-1-specific sense and antisense oligonucleotide primers, respectively. Primers are tailed, introducing a Kpnl restriction site 5′ of the Kozak sequence and a Xhol site 3′ of the stop codon. Placental SEAP is amplified accordingly by PCR using plasmid pBC 12/PLAP489 (Berger et al., 1988) as a template and similar tailed SEAP-specific sense and antisense oligonuclotide primers. The SEAP and VCAM-1 cDNAs are isolated and cloned into the pCR2.1 vector (TA cloning kit, Invitrogen). All sequences are confirmed by sequencing and subsequently subcloned into the mammalian expression vector pcDNA3.1 (+) (Invitrogen) as Kpnl Xhol fragments for transient expression under control of the constitutive immediate-early CMV promoter and for cell-free translation from the bacteriophage T7 promoter. To generate SP-gene fusion constructs the recombinant PCR-ligation-PCR mutagenesis method is used (Ali and Steinkasserer, 1995). Briefly, in a primary PCR reaction the two fusion gene fragments are independently amplified using appropriate specific primers for the SPs (PCR product A) and the mature sequences (PCR product B), respectively. Approximately equal molar quantities of each PCR product A and B are phosphorylated and ligated. Finally, out of the possible ligation combinations, the desired fusion gene construct is specifically amplified from an aliquot of the ligation reaction by a secondary PCR using the 5′ sense primer of the SP and the 3′ antisense primer of the mature sequence. […]

[1] = molecular target: T1, VCAM-1 mutant molecule containing the SP from E-Selectin (Homo sapiens, UniProt P19320); assay: as above; format: cell-based; settings: cell-free translation/translocation assay and transiently transfected HEK293 cells
T1 construct: E-Selectin signal peptide (SP; SELE, P16581), replacing VCAM-1's own SP (N); expressed in transfected cells; host or cells: HEK293 (transient); also translated cell-free in reticulocyte lysate with microsomes
Method: as §1

[2] = molecular target: T2, E-Selectin mutant molecule with SP from VCAM-1 (Homo sapiens, UniProt P16581); assay: as above; format: cell-based; settings: cell-free translation/translocation assay and transiently transfected HEK293 cells
T2 construct: VCAM-1 signal peptide (SP; VCAM1, P19320), replacing E-Selectin's own SP (N); expressed in transfected cells; host or cells: HEK293 (transient); also translated cell-free in reticulocyte lysate with microsomes
Method: as §1

VCAM-1 = molecular target: T3, VCAM-1 (Homo sapiens, UniProt P19320)
T3 sequence (P19320 25-739): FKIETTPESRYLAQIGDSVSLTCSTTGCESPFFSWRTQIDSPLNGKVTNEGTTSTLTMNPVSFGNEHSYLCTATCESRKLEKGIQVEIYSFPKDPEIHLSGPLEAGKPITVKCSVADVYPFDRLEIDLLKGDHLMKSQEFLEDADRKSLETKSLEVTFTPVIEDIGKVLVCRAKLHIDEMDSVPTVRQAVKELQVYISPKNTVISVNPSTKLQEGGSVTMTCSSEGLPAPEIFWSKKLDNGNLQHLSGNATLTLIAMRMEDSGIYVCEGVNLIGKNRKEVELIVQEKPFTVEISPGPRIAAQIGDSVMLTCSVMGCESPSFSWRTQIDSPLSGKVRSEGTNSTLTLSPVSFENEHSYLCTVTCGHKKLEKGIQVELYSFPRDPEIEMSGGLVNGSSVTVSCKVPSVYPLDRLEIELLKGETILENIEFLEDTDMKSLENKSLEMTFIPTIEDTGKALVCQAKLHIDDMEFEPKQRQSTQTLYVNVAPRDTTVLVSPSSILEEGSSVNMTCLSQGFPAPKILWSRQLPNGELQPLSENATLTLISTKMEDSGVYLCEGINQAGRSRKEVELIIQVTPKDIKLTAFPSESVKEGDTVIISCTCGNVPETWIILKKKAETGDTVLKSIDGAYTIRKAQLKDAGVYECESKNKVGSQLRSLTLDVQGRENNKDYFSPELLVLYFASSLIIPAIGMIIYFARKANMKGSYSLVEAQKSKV
Method: Cell-free translations are carried out in the coupled TNT reticulocyte lysate system (Promega) using bacteriophage T7 polymerase according to the suppliers recommendations in a final volume of 25 μl and in the presence of [^35S]-methionine (Redivue, 10 mCi/ml, Amersham). To study cotranslational translocation across the ER membrane dog pancreatic microsomes (Promega) are present during translation reactions at concentrations between 1 to 2.5 μl per 25 μl reaction mixture. After translation/translocation, 2.5 μl of the reaction mixture are denatured in SDS loading buffer (12.5 mM Tris-HCl, pH 6.8, 80 μM EDTA, 26 mM DTT, 1% SDS, 100 g/ml bromphenol blue, 0.01% NaN3) for 5 minutes at 95° and subjected to SDS-PAGE (4-20% gradient or 15% Excel gels, Pharmacia). Gels are analyzed by autoradiography and quantitated using an Instant Phosphoimager (Packard). […]
To investigate the possibility that the candidate compound is interfering at this early stage of protein expression the effect of the drug on the process of cotranslational translocation in a cell-free assay system is analysed. […]

[3] = tested on: IL-12p40 SP-SEAP fusion construct; assay: SP-SEAP assay, secretion of SEAP into the medium; format: cell-based; settings: transient overexpression in mammalian cells, increasing concentrations
Method: (§2) Cell Culture and Transient Transfections HEK293 cells are maintained in Dulbeccos' modified Eagle's medium (DMEM, Gibco-BRL), supplemented with 10% heat-inactivated fetal calf serum (FCS, Bio-Whittaker) and 100 Units/ml each of penicillin (BC) and streptomycin (Gibco-BRL) at 37° in a 5% humidified CO2 incubator. HUVEC cells are cultured in endothelial cell basal medium (EBM, Clonetics Corp.) supplemented with 10% FCS, 5×10^−4 M dibutyryl cAMP (Sigma), 1 μg/ml hydrocortisone (Sigma) and 10 ng/ml human EGF (Boehringer) at 37° in a 5% humidified CO2 incubator. VCAM-1 production is stimulated by incubation with 100U/ml TNF-α for ca. 8 hours. For transient transfection, HEK293 cells are seeded into 6-well or 24-well cell culture dishes at a density of 6×10^5 cells/well or 1.5×10^5 cells/well, respectively, the day prior to transfection and grown to 50-70% confluency. Cells are transfected with 2 μg or 1 μg of plasmid DNA, respectively, using the SuperFect reagent (Qiagen) according to the supplier's recommendations. Cells are incubated either without or with addition of a candidate compound, respectively, at concentrations indicated for ca. 24 to 48 hours. For proteasome inhibition experiments Lactacystin (Calbiochem) is added at a final concentration of 5 μM alone or together with a candidate compound 5 hours post-transfection, respectively.
(§3) Human placental SEAP levels in cell supernatants are determined using either a fluorescence-based assay or an assay that measures light absorbance at 405 nm accompanying hydrolysis of pNPP according to the method described (Berger et al., 1988). Briefly, a 500 μl aliquot of medium is removed from the culture dish, clarified for 1 min at 14,000×g and heated for 5 minutes at 65°. An aliquot of medium (10 μl-100 μl) is adjusted to 1x SEAP buffer (1.0 M diethanolamine, pH 9.8, 0.5 mM MgCl2, 10 mM L-homoarginine) in a final volume of 200 μl in a 96-well flat bottom culture dish (Nunc) and prewarmed to 37° for 10 min. 20 μl of 120 mM pNPP in 1x SEAP buffer prewarmed to 37° is added and the change in absorbance at 37° is plotted. Heating step and inclusion of L-homoarginine in the assay buffer inhibit any endogenous phophatase activity. For determination of SEAP levels by a fluorescence-based assay the Atto Phos AP Fluorescent Substrate Sysem (Promega) is used according to the manufacturer's instructions.
(§4) To further validate the novel assay system claimed in the present invention we generated SP-SEAP fusion constructs similarily to the method as described in example 1, but using the SP of other protein targets playing critical roles in various disease processes and tested their functionality by transient overexpression in mammalian cells in the absence or presence of increasing concentrations of compound CP as described (FIG. 7). […]

[4] = tested on: MCP-1 SP-SEAP fusion construct; assay: SP-SEAP assay, secretion of SEAP into the medium; format: cell-based; settings: transient overexpression in mammalian cells, increasing concentrations
Method: as §2, §3, §4

VEGF SP-SEAP construct = assay: SP-SEAP assay, secretion of SEAP into the medium; format: cell-based; settings: transient overexpression in mammalian cells, increasing concentrations, dose dependent, compared to VCAM-1 SP-SEAP
Method: as §2, §3, §4

[5] = tested on: IL4 SP-SEAP fusion construct; assay: SP-SEAP assay, secretion of SEAP into the medium; format: cell-based; settings: transient overexpression in mammalian cells, increasing concentrations
Method: as §2, §3, §4

SEAP = assay: SP-SEAP assay, secretion of SEAP into the medium; format: cell-based, human; settings: transiently transfected cells, increasing concentrations
Method: as §2, with “Cells are transfected with 2 μg or 1 μg of plasmid DNA, respectively, using the SuperFect reagent (Qiagen) according to the supplier's recommendations. Cells are incubated either without or with addition of a candidate compound, respectively, at concentrations indicated for ca. 24 to 48 hours. For proteasome inhibition experiments Lactacystin (Calbiochem) is added at a final concentration of 5 μM alone or together with a candidate compound 5 hours post-transfection, respectively.” left out
Human placental SEAP levels in cell supernatants are determined using either a fluorescence-based assay or an assay that measures light absorbance at 405 nm accompanying hydrolysis of pNPP according to the method described (Berger et al., 1988). […] 20 μl of 120 mM pNPP in 1x SEAP buffer prewarmed to 37° is added and the change in absorbance at 37° is plotted. […] For determination of SEAP levels by a fluorescence-based assay the Atto Phos AP Fluorescent Substrate Sysem (Promega) is used according to the manufacturer's instructions. […]

Structure (SMILES): CCCCC(C)CC1NC(=O)C(Cc2cn(OC)c3ccccc23)N(C)C(=O)C(CC(C)C)NC(=O)C(CC(C)C)N(C)C(=O)C(CC(C)CCCC)NC(=O)C(CCC(=O)OCCC)OC(=O)C(C)N(C)C1=O (stereo not drawn) [CP]
- sensitivity of the chimeric construct to the compound (VCAMSP15+4/E-Sel): full sensitivity
- sensitivity of the chimeric construct to the compound [1]: resistant
- sensitivity of the chimeric construct to the compound [2]: partially sensitive
- core-glycosylated and protease-protected form of VCAM-1 (translocation across microsomal membranes) (VCAM-1): inhibited by increasing concentrations
- sensitivity of SEAP secretion to the compound [3]: insensitive
- sensitivity of SEAP secretion to the compound [4]: insensitive
- sensitivity of SEAP secretion to the compound (VEGF SP-SEAP construct): sensitive
- sensitivity of SEAP secretion to the compound [5]: insensitive
- sensitivity of SEAP secretion to the compound (SEAP): compound-insensitive
